The test system of one data set is E. coli. Description: Minimum Bactericidal Concentration (MBC) assay (CAMHB). It is filed as cell-based, Escherichia coli. The following applies: Table 4, all ΔΔ- enantiomers. The procedure:
(§1) Further MIC assays and Minimum Bactericidal Concentration (MBC) assays were conducted against Gram-positive and Gram-negative bacterial strains using symmetric and non-symmetric, inert and labile complexes.

The test system of data set [1] is MRSA (a wild clinical strain from the JCU culture collection). Description: MIC determination, broth micro-dilution (CAMHB). The format is cell-based, methicillin-resistant S. aureus. The following applies: Table 4; CAMHB; all ΔΔ- enantiomers. The method in brief: (§2)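 Ruthenium complexes two-fold serially diluted in cation-adjusted Mueller Hinton broth, final range 0.25–128 […], with equal volume of bacterial suspension; duplicate determinations, gentamicin as positive control. Plates incubated 37° C for 24 h; MIC by standard micro-dilution.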
In general terms: In broth dilution the organism is exposed to a series of concentrations in liquid medium.

The next data set concerns S. aureus. Description: Minimum Bactericidal Concentration (MBC) assay (CAMHB). It is filed as cell-based, Staphylococcus aureus. The conditions noted are these: Table 4, all ΔΔ- enantiomers. The method, then: as §1
The subject of the next data set is MRSA. Described as above. It is filed as cell-based, methicillin-resistant S. aureus. The following applies: Table 4, all ΔΔ- enantiomers. The procedure:
as §1

The format of data set [2] is physicochemical. The following applies: pH 7.4. The method, then:
The primary difference between the members of the Rubbn family of complexes is the number of methylene groups in the flexible linking chain. […] Lipophilicity is a significant factor affecting the biological activity of most therapeutic compounds, as it relates to the capacity of the drug to penetrate through the cell membrane. The standard octanol-water partition coefficient (logP) was determined for the Rubbn series (F. Lombardo, B. Faller, M. Shalaeva, I. Tetko and S. Tilton, Methods and Principles in Medicinal Chemistry, 2008, 37, 407) parent model mononuclear species ([Ru(phen)2(Me2bpy)]^2+) and the trinuclear and tetranuclear complexes.
The partition coefficients (logP) were measured using the shake flask technique: each ruthenium complex (at both 0.05 and 0.1 mM) was dissolved in the water phase (0.2 M Na2HPO4—NaH2PO4 buffer, pH=7.4) and an equivalent volume of n-octanol was added.
The two phases were mutually saturated by shaking overnight at ambient temperature and then were allowed to separate on standing. The concentration of the metal complex in each phase was determined spectrophotometrically at l=450 nm.

For another data set, the system named is S. aureus ATCC 25923. Put plainly: MIC determination, broth micro-dilution (CAMHB). It is filed as cell-based, Staphylococcus aureus. The following applies: Table 4; CAMHB; all ΔΔ- enantiomers. The method, boiled down:
as §2

Data set [3] has as its system Plasmodium falciparum strain W2. Put plainly: [3H]-hypoxanthine growth inhibition assay. The format is cell-based. The following applies: mean (SD), 96 h exposure, chloroquine-resistant strain; for pIC50: read-out: IC50 W2; for IC90: read-out: IC90 W2. The method, then:
(§3) The in vitro antimalarial activities of two of the dinuclear ruthenium(II) complexes and chloroquine were assessed by exposing P. falciparum strains to ten serially diluted two-fold concentrations of each compound. Parasite growth was measured by uptake of tritiated [^3H]-hypoxanthine into newly synthesised parasitic DNA.
(§4) The [^3H]-hypoxanthine growth inhibition assay (Desjardins et al., 1979 Antimicrobial Agents Chemother 16: 710-718) was used to evaluate the in vitro antimalarial activity of the compounds. Briefly, synchronised parasite cultures (>90% rings, 6 to 8 h post invasion) in [^3H]-RPMI-LPLF complete medium with 0.5% parasitaemia and 2% haematocrit were exposed to the compounds at ten two-fold concentrations, ranging from 10,000 to 20 nM in 96-well microtitre plates. Chloroquine was used as a reference drug. Uninfected RBCs at 2% haematocrit were used as background controls. For the 96 h exposure period, the plates were incubated in the gas mixture at 37° C. for approximately 48 h, followed by the addition of 0.2 μCi of ^3H-hypoxanthine (GE Healthcare, Amersham) in [^3H]-RPMI-1640-LPLF to each well and a further 48 h of incubation and then frozen at −20° C. Plates were thawed and harvested using Tomtech Harvester 96 Mach III and radioactive counts were obtained using Wallac TriLux 1450 Microbeta Liquid Scintillation Counter (Perkin Elmer, USA). All assays were performed in triplicate for each strain and at least on two separate occasions.
(§5) Tritiated hypoxanthine uptake data were analysed in Graphpad Prism V5.0 software (GraphPad Software Inc. USA). The concentrations of the dinuclear ruthenium(II) complexes and chloroquine were transformed into logarithmic values. After subtracting the background values, the data from drug-treated wells were normalised against drug-free control wells. Non-linear regression analysis was carried out of the compound's concentration versus parasitic hypoxanthine incorporation. The in vitro antimalarial activity of the compound is defined as inhibitory concentrations (IC50) and (IC90) that cause 50% and 90% inhibition of parasite growth as determined by measuring [^3H]-hypoxanthine incorporation.

The test system of data set [4] is Plasmodium falciparum strain D6. Description: [3H]-hypoxanthine growth inhibition assay. It is filed as cell-based. The following applies: mean (SD), 96 h exposure, chloroquine-sensitive strain; for pIC50: read-out: IC50 D6; for IC90: read-out: IC90 D6. The procedure:
as §3, §4, §5

Another data set deals with E. coli ATCC 25922. Description: MIC determination, broth micro-dilution (CAMHB). It is filed as cell-based, Escherichia coli. The conditions noted are these: Table 4; CAMHB; all ΔΔ- enantiomers. The method, boiled down:
as §2

In another data set the test system is P. aeruginosa. Put plainly: Minimum Bactericidal Concentration (MBC) assay (CAMHB). It is filed as cell-based, Pseudomonas aeruginosa. The following applies: Table 4, all ΔΔ- enantiomers. The procedure: as §1
The test system of the next data set is P. aeruginosa ATCC 27853. Put plainly: MIC determination, broth micro-dilution (CAMHB). The format is cell-based, Pseudomonas aeruginosa. The following applies: Table 4; CAMHB; all ΔΔ- enantiomers. The method, boiled down:
as §2

Data on two molecules can be found in US20130172308A1, “ANTIMICROBIAL AGENTS” (John Grant COLLINS, priority 2011, published 2013).

pIC50: −log10 of the molar value.

For orientation: logP means the decadic logarithm of the partition coefficient of the neutral form, usually between octanol and water. Lower therefore signals lower lipophilicity. The pIC50 is the IC50 on a negative log10 scale, so that one unit is a factor of ten. The IC90 is the point of the concentration-response curve where the effect stands at 90%.

As to `Cc1ccnc(-c2cc(CCCCCCCCCCCCCCCCc3ccnc(-c4cc(C)ccn4)c3)ccn2)c1.[Cl-].[Cl-].[Cl-].[Cl-].[Ru+2].[Ru+2].c1cnc2c(c1)ccc1cccnc12.c1cnc2c(c1)ccc1cccnc12.c1cnc2c(c1)ccc1cccnc12.c1cnc2c(c1)ccc1cccnc12` [Rubb16, [{Ru(phen)2}2(μ-bb16)]Cl4], the MBC E. coli against E. coli was determined as 2 mg/L. Besides, the “MIC MRSA” value in data set [1] worked out at 1. Moreover, in the data set with S. aureus, the MBC S. aureus turned out to be 1 mg/L. This molecule also registered an MBC MRSA against MRSA of 2 mg/L. For the same molecule, in [2], the lipophilicity (logP) was −1.9. In addition, the “MIC S. aureus” value against S. aureus ATCC 25923 was found to be 1. Moreover, in data set [3], the pIC50 is 6.54 and the IC90 is 0.444 µM. In addition, in data set [4], the pIC50 was 6.65 and the IC90 is 0.413 µM. In the data set with E. coli ATCC 25922, the “MIC E. coli” value is given as 2. This molecule displayed an MBC P. aeruginosa against P. aeruginosa of 8 mg/L. Also, the “MIC P. aeruginosa” value with P. aeruginosa ATCC 27853 amounted to 8.

In the data set on E. coli, [{Ru(phen)2}2(μ-bb12)] [Rubb12] had an MBC E. coli of 2 mg/L. Moreover, in data set [1], the “MIC MRSA” value was 1. This molecule displayed an MBC S. aureus against S. aureus of 2 mg/L. Also, in the data set on MRSA, the MBC MRSA was 2 mg/L. Moreover, in data set [2], the lipophilicity (logP) was −2.7. The “MIC S. aureus” value with S. aureus ATCC 25923 is 1. The pIC50 in [3] and in data set [4] was 6.13 throughout. The values for the 90% effect concentration (IC90) in data set [3] and in data set [4] were 1.4 µM and 1.25 µM, respectively. In the data set with E. coli ATCC 25922, the “MIC E. coli” value is recorded as 2. The same molecule came in with an MBC P. aeruginosa in the data set with P. aeruginosa of 32 mg/L. For the same molecule, the “MIC P. aeruginosa” value in the data set on P. aeruginosa ATCC 27853 was determined as 16.
